Positions count from the first letter of the chain named.
Legend:
PTH1R K360A mutant = molecular target: T1, PTH1R K360A mutant (Homo sapiens, UniProt Q03431, K360A); assay: cAMP accumulation assay (GloSensor), PTH1R K360A; type: cell-based; settings: for ΔpEC50±SEM: relative to WT, n = 3 in triplicate; for ΔpEC50±SEM / Span±SEM: mean ± SEM; for Span±SEM: window between maximal response (Emax) and vehicle, n = 3
T1 construct: a flag-tag was fused to the N terminal of full-length PTH1R (WT or mutant); expressed in transfected cells; host or cells: HEK293T
T1 sequence (Q03431 27-593 K360A): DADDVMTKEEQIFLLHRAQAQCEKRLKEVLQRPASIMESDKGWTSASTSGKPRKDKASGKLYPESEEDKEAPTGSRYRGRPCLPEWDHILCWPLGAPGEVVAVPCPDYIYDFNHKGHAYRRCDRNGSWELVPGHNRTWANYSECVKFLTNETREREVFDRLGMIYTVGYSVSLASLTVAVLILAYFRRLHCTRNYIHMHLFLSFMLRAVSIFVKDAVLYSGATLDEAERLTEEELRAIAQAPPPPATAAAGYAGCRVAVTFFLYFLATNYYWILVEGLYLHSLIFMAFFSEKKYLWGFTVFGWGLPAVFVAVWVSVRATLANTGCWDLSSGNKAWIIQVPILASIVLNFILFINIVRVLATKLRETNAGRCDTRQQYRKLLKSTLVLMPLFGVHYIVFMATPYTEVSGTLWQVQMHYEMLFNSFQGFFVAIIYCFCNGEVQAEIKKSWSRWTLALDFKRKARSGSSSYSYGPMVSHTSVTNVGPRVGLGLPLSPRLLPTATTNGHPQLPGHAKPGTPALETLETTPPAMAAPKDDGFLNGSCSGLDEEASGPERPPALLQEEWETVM
Experimental: Human embryonic kidney 293 T (HEK293T, ATCC: CRL-1573) cells were transfected with a plasmid mixture consisting of pcDNA3.1-flag-PTH1R (WT or mutants) and the cAMP biosensor GloSensor-22F (Promega) at a ratio of 2:1 (see Supplementary Table 7 for a list of primers used in this study). After 24 h, transfected cells were plated onto a 384-well plate, which was treated with cell adherent reagent (Applygen) in advance. After another 12 h, cells were treated with Hank’s balanced salt solution for starvation and then incubated in CO2-independent media containing 4% GloSensor cAMP Reagent (Promega) at a volume of 5 μl per well and incubated for 20 min at RT before measurements for baseline luminescence (Spark Multimode microplate reader, TECAN). Next, test ligands were added at different concentrations from 10^−6 to 10^−13 M before second measurement. Finally, data were normalized to 100% of the maximal PTH (1-34) response for WT PTH1R using a sigmoidal dose-response in GraphPad Prism.
Statistical analyses were performed on at least three individual datasets and analysed using GraphPad Prism software. Bars represent differences in the calculated agonist potency (pEC50) and maximum agonist response (Emax) for each mutant relative to the WT receptor. Data are mean± s.e.m. from at least three independent experiments, performed in triplicates. ns, not significant, ^nsP > 0.01; ^*P < 0.01; ^**P < 0.001; ^***P < 0.0001 (one-way analysis of variance (ANOVA) followed by Dunnett’s test, compared with the response of the WT). For dose-response experiments, data were normalized and analyzed using nonlinear curve fitting for the log (agonist) versus response (three parameters) curves.

PTH1R (WT) = molecular target: T2, PTH1R (WT) (Homo sapiens, UniProt Q03431); assay: Wash out assay, duration of cAMP signaling; type: cell-based; settings: ligand 10^-6 M, 10 min ligand-on phase, 70 min wash-out phase, HEK293T, GloSensor
T2 construct: a flag-tag was fused to the N terminal of full-length PTH1R (WT or mutant); expressed in transfected cells; host or cells: HEK293T
T2 sequence (Q03431 27-593): T1 sequence (Q03431 27-593 K360A) with A334K
Experimental: Human embryonic kidney 293 T (HEK293T) cells were transfected with a plasmid mixture consisting of pcDNA3.1-flag-PTH1R (WT) and the cAMP biosensor GloSensor-22F (Promega) at a ratio of 2:1. After 24 h, transfected cells were plated onto a 96-well plate, which was treated with cell adherent reagent (Applygen) in advance. After another 12 h, cells were treated with Hank’s balanced salt solution for starvation and then incubated in CO2-independent media containing 4% GloSensor cAMP Reagent (Promega) at a volume of 40 μl per well and incubated for 20 min at RT before measurements for baseline luminescence (Spark Multimode microplate reader, TECAN). Next, test ligands (10 μl) were added at 10^−6 M that approximated the respective Emax (efficacy) value obtained for that “ligand- on” phase were similar for the different ligands. Then the development of cAMP-dependent luminescence was measured for 10 min (“ligand-on” phase); the plates were then removed from the plate reader, the cells were rinsed twice to remove unbound ligand, treated with fresh media containing luciferin, and luminescence was again recorded for an additional 70 min (“wash-out” phase)[18]. Finally, data were analyzed using GraphPad Prism.

Row | Substance | span (from the WT) (PTH1R K360A mutant; PTH1R K3605.36A, replicate 1) | ΔpEC50 (from the WT) (PTH1R K360A mutant; PTH1R K3605.36A, replicate 1) | span (from the WT) (PTH1R K360A mutant; PTH1R K3605.36A, replicate 2) | ΔpEC50 (from the WT) (PTH1R K360A mutant; PTH1R K3605.36A, replicate 2) | span (from the WT) (PTH1R K360A mutant; PTH1R K3605.36A, replicate 3) | ΔpEC50 (from the WT) (PTH1R K360A mutant; PTH1R K3605.36A, replicate 3) | ΔpEC50±SEM (PTH1R K360A mutant) | ΔpEC50 (from the WT) (PTH1R K360A mutant; replicate 1) | ΔpEC50 (from the WT) (PTH1R K360A mutant; replicate 2) | ΔpEC50 (from the WT) (PTH1R K360A mutant; replicate 3) | Span±SEM (PTH1R K360A mutant) | duration of cAMP signaling after wash-out (PTH1R (WT))
1 | H-AVAEIQLMHQRAKWIQDARRRAFLHKLIAEIHTAEI-OH [LA-PTH, long-acting PTH analog, modified PTH/PTHrP hybrid] | 126.5 | 0.012 | 121.9 | 0.001 | 153.1 | -0.25 | -0.08±0.09 | 0.012 | 0.001 | -0.25 | 133.83±9.72 | stronger activity of sustained signaling when compared with the PTH
2 | H-AVSEHQLLHDKGKSIQDLRRRELLEKLL-{Aib}-KLHTA-NH2 [ABL, Abaloparatide, an analog of PTHrP, short-acting PTH1R agonist] | 125.1 | -1.039 | 150.8 | -1.216 | 115 | -1.137 | -1.13±0.05 | -1.039 | -1.216 | -1.137 | 130.30±10.66 | obvious transient cAMP signaling
3 | H-SVSEIQLMHNLGKHLNSMERVEWLRKKLQDVHNF-OH [PTH, Teriparatide, human PTH 1-34, long-acting peptide agonist of PTH1R] | 136.9 | 0.02 | 137.1 | -0.139 | 183.3 | -0.31 | -0.14±0.10 | 0.02 | -0.139 | -0.31 | 135.06±20.89 | potent prolonged cAMP signaling

— article PMC9586930, “Molecular insights into the distinct signaling duration for the peptide-induced PTH1R activation” (Nature Communications, 2022)
